# Experimental data from PubChem BioAssay (NCI).
#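 A five-concentration, 48-hour dose response in 96-well plates underlies each endpoint, interpolated linearly between surrounding concentrations. TGI: concentration producing complete growth inhibition.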
# Legend:
# Assay in all cases: growth of human tumour cells (NCI), 48 h
# 786-0 renal = tested on: 786-0 renal
# A549 NSCLC = tested on: A549 NSCLC
# ACHN renal = tested on: ACHN renal
# CAKI-1 renal = tested on: CAKI-1 renal
# CCRF-CEM leukemia = tested on: CCRF-CEM leukemia
# COLO 205 colon = tested on: COLO 205 colon
# DLD-1 colon = tested on: DLD-1 colon
# DMS 114 small cell lung = tested on: DMS 114 small cell lung
# DMS 273 small cell lung = tested on: DMS 273 small cell lung
# HCT-116 colon = tested on: HCT-116 colon
# HCT-15 colon = tested on: HCT-15 colon
# HL-60(TB) leukemia = tested on: HL-60(TB) leukemia
# HOP-18 NSCLC = tested on: HOP-18 NSCLC
# HOP-62 NSCLC = tested on: HOP-62 NSCLC
# HOP-92 NSCLC = tested on: HOP-92 NSCLC
# HT29 colon = tested on: HT29 colon
# IGROV1 ovarian = tested on: IGROV1 ovarian
# K-562 leukemia = tested on: K-562 leukemia
# KM12 colon = tested on: KM12 colon
# KM20L2 colon = tested on: KM20L2 colon
# LOX IMVI melanoma = tested on: LOX IMVI melanoma
# LXFL 529 NSCLC = tested on: LXFL 529 NSCLC
# M14 melanoma = tested on: M14 melanoma
# M19-MEL melanoma = tested on: M19-MEL melanoma
# MALME-3M melanoma = tested on: MALME-3M melanoma
# MOLT-4 leukemia = tested on: MOLT-4 leukemia
# NCI-H226 lung = tested on: NCI-H226 lung
# NCI-H23 lung = tested on: NCI-H23 lung
# NCI-H460 lung = tested on: NCI-H460 lung
# NCI-H522 lung = tested on: NCI-H522 lung
# OVCAR-3 ovarian = tested on: OVCAR-3 ovarian
# OVCAR-4 ovarian = tested on: OVCAR-4 ovarian
# OVCAR-5 ovarian = tested on: OVCAR-5 ovarian
# OVCAR-8 ovarian = tested on: OVCAR-8 ovarian
# RPMI-8226 leukemia = tested on: RPMI-8226 leukemia
# RXF 393 renal = tested on: RXF 393 renal
# SF-268 CNS = tested on: SF-268 CNS
# SF-295 CNS = tested on: SF-295 CNS
# SF-539 CNS = tested on: SF-539 CNS
# SK-MEL-2 melanoma = tested on: SK-MEL-2 melanoma
# SK-MEL-28 melanoma = tested on: SK-MEL-28 melanoma
# SK-MEL-5 melanoma = tested on: SK-MEL-5 melanoma
# SK-OV-3 ovarian = tested on: SK-OV-3 ovarian
# SN12C renal = tested on: SN12C renal
# SNB-75 CNS = tested on: SNB-75 CNS
# SNB-78 CNS = tested on: SNB-78 CNS
# SR leukemia = tested on: SR leukemia
# SW-620 colon = tested on: SW-620 colon
# TK-10 renal = tested on: TK-10 renal
# U251 CNS = tested on: U251 CNS
# UACC-257 melanoma = tested on: UACC-257 melanoma
# UACC-62 melanoma = tested on: UACC-62 melanoma
# UO-31 renal = tested on: UO-31 renal
# A498 renal = tested on: A498 renal
# EKVX NSCLC = tested on: EKVX NSCLC
# HCC-2998 colon = tested on: HCC-2998 colon
# SNB-19 CNS = tested on: SNB-19 CNS
# XF 498 CNS = tested on: XF 498 CNS
smiles,measurement,setting,value
CC(=O)OC(CCC1(C)OC1COc1ccc(CCNC(=O)c2ccccc2)cc1)C(C)(C)OC(C)=O (stereo not drawn),TGI,786-0 renal,> 100 µM
same,TGI,A549 NSCLC,> 100 µM
same,TGI,ACHN renal,> 100 µM
same,TGI,CAKI-1 renal,> 100 µM
same,TGI,CCRF-CEM leukemia,> 100 µM
same,TGI,COLO 205 colon,58.4 µM
same,TGI,DLD-1 colon,> 100 µM
same,TGI,DMS 114 small cell lung,15.8 µM
same,TGI,DMS 273 small cell lung,24.8 µM
same,TGI,HCT-116 colon,45.5 µM
same,TGI,HCT-15 colon,> 100 µM
same,TGI,HL-60(TB) leukemia,> 100 µM
same,TGI,HOP-18 NSCLC,> 100 µM
same,TGI,HOP-62 NSCLC,> 100 µM
same,TGI,HOP-92 NSCLC,> 100 µM
same,TGI,HT29 colon,44 µM
same,TGI,IGROV1 ovarian,> 100 µM
same,TGI,K-562 leukemia,> 100 µM
same,TGI,KM12 colon,33.7 µM
same,TGI,KM20L2 colon,> 100 µM
same,TGI,LOX IMVI melanoma,> 100 µM
same,TGI,LXFL 529 NSCLC,34.6 µM
same,TGI,M14 melanoma,30.1 µM
same,TGI,M19-MEL melanoma,69 µM
same,TGI,MALME-3M melanoma,80.1 µM
same,TGI,MOLT-4 leukemia,> 100 µM
same,TGI,NCI-H226 lung,> 100 µM
same,TGI,NCI-H23 lung,97.2 µM
same,TGI,NCI-H460 lung,36.7 µM
same,TGI,NCI-H522 lung,> 100 µM
same,TGI,OVCAR-3 ovarian,54.5 µM
same,TGI,OVCAR-4 ovarian,> 100 µM
same,TGI,OVCAR-5 ovarian,> 100 µM
same,TGI,OVCAR-8 ovarian,41.4 µM
same,TGI,RPMI-8226 leukemia,> 100 µM
same,TGI,RXF 393 renal,43.8 µM
same,TGI,SF-268 CNS,> 100 µM
same,TGI,SF-295 CNS,> 100 µM
same,TGI,SF-539 CNS,> 100 µM
same,TGI,SK-MEL-2 melanoma,60.4 µM
same,TGI,SK-MEL-28 melanoma,91.8 µM
same,TGI,SK-MEL-5 melanoma,17.4 µM
same,TGI,SK-OV-3 ovarian,> 100 µM
same,TGI,SN12C renal,> 100 µM
same,TGI,SNB-75 CNS,> 100 µM
same,TGI,SNB-78 CNS,> 100 µM
same,TGI,SR leukemia,> 100 µM
same,TGI,SW-620 colon,> 100 µM
same,TGI,TK-10 renal,> 100 µM
same,TGI,U251 CNS,> 100 µM
same,TGI,UACC-257 melanoma,25.8 µM
same,TGI,UACC-62 melanoma,31.4 µM
same,TGI,UO-31 renal,> 100 µM
O=C(O)/C(=C/C=C/c1ccccc1)c1csc(-c2nc(/C(=C\C=C\c3ccccc3)C(=O)O)cs2)n1,TGI,786-0 renal,56.1 µM
same,TGI,A498 renal,> 100 µM
same,TGI,A549 NSCLC,> 100 µM
same,TGI,ACHN renal,92.5 µM
same,TGI,CCRF-CEM leukemia,45.6 µM
same,TGI,COLO 205 colon,51.3 µM
same,TGI,DLD-1 colon,57.7 µM
same,TGI,DMS 114 small cell lung,72 µM
same,TGI,EKVX NSCLC,> 100 µM
same,TGI,HCC-2998 colon,59.7 µM
same,TGI,HCT-116 colon,40.8 µM
same,TGI,HCT-15 colon,> 100 µM
same,TGI,HL-60(TB) leukemia,39.3 µM
same,TGI,HOP-62 NSCLC,54.6 µM
same,TGI,HOP-92 NSCLC,59.9 µM
same,TGI,HT29 colon,> 100 µM
same,TGI,IGROV1 ovarian,> 100 µM
same,TGI,K-562 leukemia,54.6 µM
same,TGI,KM12 colon,92.4 µM
same,TGI,KM20L2 colon,> 100 µM
same,TGI,LOX IMVI melanoma,> 100 µM
same,TGI,LXFL 529 NSCLC,64.8 µM
same,TGI,M14 melanoma,61 µM
same,TGI,M19-MEL melanoma,> 100 µM
same,TGI,MALME-3M melanoma,60 µM
same,TGI,MOLT-4 leukemia,16.4 µM
same,TGI,NCI-H460 lung,> 100 µM
same,TGI,OVCAR-3 ovarian,57.5 µM
same,TGI,OVCAR-5 ovarian,> 100 µM
same,TGI,OVCAR-8 ovarian,> 100 µM
same,TGI,RPMI-8226 leukemia,65.3 µM
same,TGI,RXF 393 renal,82.4 µM
same,TGI,SF-268 CNS,> 100 µM
same,TGI,SF-295 CNS,87.6 µM
same,TGI,SF-539 CNS,51.2 µM
same,TGI,SK-MEL-2 melanoma,43.6 µM
same,TGI,SK-MEL-28 melanoma,> 100 µM
same,TGI,SK-MEL-5 melanoma,86.3 µM
same,TGI,SK-OV-3 ovarian,> 100 µM
same,TGI,SN12C renal,> 100 µM
same,TGI,SNB-19 CNS,58.1 µM
same,TGI,SNB-75 CNS,98.7 µM
same,TGI,SNB-78 CNS,79.8 µM
same,TGI,SW-620 colon,> 100 µM
same,TGI,TK-10 renal,> 100 µM
same,TGI,U251 CNS,> 100 µM
same,TGI,UACC-257 melanoma,> 100 µM
same,TGI,UACC-62 melanoma,98.1 µM
same,TGI,UO-31 renal,59.6 µM
CC(C)C(C)C(C)(C)P(C)(C)=O (stereo not drawn),TGI,ACHN renal,> 100 µM
same,TGI,DLD-1 colon,> 100 µM
same,TGI,DMS 114 small cell lung,> 100 µM
same,TGI,EKVX NSCLC,> 100 µM
same,TGI,HCC-2998 colon,> 100 µM
same,TGI,HCT-116 colon,> 100 µM
same,TGI,HCT-15 colon,> 100 µM
same,TGI,HOP-62 NSCLC,> 100 µM
same,TGI,HT29 colon,> 100 µM
same,TGI,KM12 colon,> 100 µM
same,TGI,KM20L2 colon,> 100 µM
same,TGI,LOX IMVI melanoma,> 100 µM
same,TGI,LXFL 529 NSCLC,> 100 µM
same,TGI,M14 melanoma,> 100 µM
same,TGI,M19-MEL melanoma,> 100 µM
same,TGI,MALME-3M melanoma,> 100 µM
same,TGI,NCI-H226 lung,> 100 µM
same,TGI,NCI-H23 lung,> 100 µM
same,TGI,NCI-H460 lung,> 100 µM
same,TGI,OVCAR-3 ovarian,> 100 µM
same,TGI,OVCAR-4 ovarian,> 100 µM
same,TGI,OVCAR-5 ovarian,> 100 µM
same,TGI,RXF 393 renal,> 100 µM
same,TGI,SF-268 CNS,> 100 µM
same,TGI,SF-539 CNS,> 100 µM
same,TGI,SK-MEL-2 melanoma,> 100 µM
same,TGI,SK-MEL-28 melanoma,> 100 µM
same,TGI,SK-OV-3 ovarian,> 100 µM
same,TGI,SN12C renal,> 100 µM
same,TGI,SNB-19 CNS,> 100 µM
same,TGI,SNB-75 CNS,> 100 µM
same,TGI,SNB-78 CNS,> 100 µM
same,TGI,TK-10 renal,> 100 µM
same,TGI,U251 CNS,> 100 µM
same,TGI,UACC-257 melanoma,> 100 µM
same,TGI,UACC-62 melanoma,> 100 µM
same,TGI,UO-31 renal,> 100 µM
same,TGI,XF 498 CNS,> 100 µM
O=C1C2C3C=CC(C2C(=O)N1COP(=O)(O)O)C1C2C(=O)N(COP(=O)(O)O)C(=O)C2C31 (stereo not drawn),TGI,786-0 renal,> 100 µM
same,TGI,A498 renal,> 100 µM
same,TGI,A549 NSCLC,> 100 µM
same,TGI,ACHN renal,> 100 µM
same,TGI,CAKI-1 renal,> 100 µM
same,TGI,CCRF-CEM leukemia,> 60.7 µM
same,TGI,COLO 205 colon,> 65 µM
same,TGI,DLD-1 colon,> 75.9 µM
same,TGI,DMS 114 small cell lung,> 58.8 µM
same,TGI,DMS 273 small cell lung,> 56.3 µM
same,TGI,EKVX NSCLC,> 100 µM
same,TGI,HCC-2998 colon,> 100 µM
same,TGI,HCT-116 colon,> 57.6 µM
same,TGI,HCT-15 colon,> 57.9 µM
same,TGI,HL-60(TB) leukemia,29.9 µM
same,TGI,HOP-18 NSCLC,> 100 µM
same,TGI,HOP-62 NSCLC,> 100 µM
same,TGI,HOP-92 NSCLC,> 100 µM
same,TGI,HT29 colon,> 100 µM
same,TGI,IGROV1 ovarian,> 100 µM
same,TGI,K-562 leukemia,> 100 µM
same,TGI,KM12 colon,> 100 µM
same,TGI,KM20L2 colon,> 100 µM
same,TGI,LOX IMVI melanoma,> 64.1 µM
same,TGI,LXFL 529 NSCLC,> 100 µM
same,TGI,M14 melanoma,> 100 µM
same,TGI,M19-MEL melanoma,> 100 µM
same,TGI,MALME-3M melanoma,> 100 µM
same,TGI,MOLT-4 leukemia,> 100 µM
same,TGI,NCI-H226 lung,> 100 µM
same,TGI,NCI-H23 lung,> 100 µM
same,TGI,NCI-H460 lung,> 59.5 µM
same,TGI,NCI-H522 lung,> 100 µM
same,TGI,OVCAR-3 ovarian,> 100 µM
same,TGI,OVCAR-4 ovarian,> 100 µM
same,TGI,OVCAR-5 ovarian,> 100 µM
same,TGI,OVCAR-8 ovarian,> 100 µM
same,TGI,RPMI-8226 leukemia,> 68.5 µM
same,TGI,RXF 393 renal,> 100 µM
same,TGI,SF-268 CNS,> 100 µM
same,TGI,SF-295 CNS,> 100 µM
same,TGI,SF-539 CNS,> 100 µM
same,TGI,SK-MEL-2 melanoma,> 100 µM
same,TGI,SK-MEL-28 melanoma,> 100 µM
same,TGI,SK-MEL-5 melanoma,> 100 µM
same,TGI,SK-OV-3 ovarian,> 100 µM
same,TGI,SN12C renal,> 100 µM
same,TGI,SNB-19 CNS,> 100 µM
same,TGI,SNB-75 CNS,> 100 µM
same,TGI,SNB-78 CNS,> 100 µM
same,TGI,SR leukemia,38.6 µM
same,TGI,SW-620 colon,> 65.2 µM
same,TGI,TK-10 renal,> 100 µM
same,TGI,U251 CNS,> 100 µM
same,TGI,UACC-257 melanoma,> 100 µM
same,TGI,UACC-62 melanoma,> 100 µM
same,TGI,UO-31 renal,> 100 µM
same,TGI,XF 498 CNS,> 100 µM
